“And” between values parts separate entries of the source, which are not always exact repeats. Equal values may be shown once.
Experiments:
[1] = target: T1, p75^NTR TMD (Homo sapiens, UniProt P08138); experiment: AraTM assay, wild-type p75NTR TMD (GFP/OD630); format: cell-based; conditions: for GFP/OD630, p75, mean / GFP/OD630, p75NTR WT, Mean: N=3; for GFP/OD630, p75NTR WT, n1-n3: WT without drug = 100%; for GFP/OD630, Mean / GFP/OD630, individual replicates: Figure 5B
T1 sequence (P08138 250-275 limits assumed): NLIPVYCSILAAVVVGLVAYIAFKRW

[2] = target: T2, p75^NTR TMD P253G (Homo sapiens, UniProt P08138, P253G); experiment: AraTM assay, P253G mutant p75NTR TMD; format: cell-based; conditions: for GFP/OD630, p75NTR P253G, Mean: N=3
T2 construct: Comparison of wild-type (WT) p75^NTR TMD and I252A, P253G and V254A mutants in the AraTM assay; expressed in transfected cells; host or cells: E. coli AS19 (LPS-negative)

[3] = target: T3, p75^NTR TMD V254A (Homo sapiens, UniProt P08138, V254A); experiment: AraTM assay, V254A mutant p75NTR TMD; format: cell-based; conditions: for GFP/OD630, p75NTR V254A, Mean: N=3
T3 construct: Comparison of wild-type (WT) p75^NTR TMD and I252A, P253G and V254A mutants in the AraTM assay; expressed in transfected cells; host or cells: E. coli AS19 (LPS-negative)
T3 sequence (P08138 250-275 V254A): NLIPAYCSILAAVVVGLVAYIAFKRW

[4] = system: A875 shp75 cells; experiment: Wound healing cell motility assay, A875 shp75; format: cell-based, human; conditions: for Wound area, Mean: N=3
Method: For wound healing assay, cells were grown until confluency and subjected to a wound across the cell mono-layer. Cells were then incubated with serum-free media either with DMSO or a small molecule (with or without 5 µM Q_VD_poH) and imaged at specific time-points. Cell migration is reflected as fold change in wound area over time.

[5] = 5μM Q_VD_poH + 10μM Div17E5, 0 hours
[6] = 5μM Q_VD_poH + 10μM Div17E5, 3 hours
[7] = 5μM Q_VD_poH + 10μM Div17E5, 6 hours
[8] = 5μM Q_VD_poH + 10μM Div17E5, 9 hours
[9] = 5μM Q_VD_poH + 10μM Div17E5, 12 hours
[10] = 5μM Q_VD_poH + 10μM Div17E5, 15 hours
[11] = 5μM Q_VD_poH + 10μM Div17E5, 18 hours
[12] = 5μM Q_VD_poH + 10μM Div17E5, 21 hours
[13] = 5μM Q_VD_poH + 10μM Div17E5, 24 hours

T2 sequence (P08138 251-272 P253G limits assumed): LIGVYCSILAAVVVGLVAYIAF

With Oc1ccc(-c2cncc(Nc3ccc(Br)c(Cl)c3)n2)cc1 [Div17E5] as the compound, how does the “GFP/OD630, p75, single replicates” value ([1]; Div17E5 1 μM) read?
The value was 95 and 91 and 115.

What about the “GFP/OD630, p75, mean” value ([1]; Div17E5 1 μM) of the same compound?
Its value is 100.

What about the “GFP/OD630, p75, single replicates” value ([1]; Div17E5 2.5 μM) of the same compound?
Its value is 82 and 86 and 101.

What about the “GFP/OD630, p75, mean” value ([1]; Div17E5 2.5 μM) of the same compound?
The value was 90.

And the “GFP/OD630, p75, single replicates” value ([1]; Div17E5 5 μM)?
The value was 66 and 81 and 88.

What about the “GFP/OD630, p75, mean” value ([1]; Div17E5 5 μM) of the same compound?
The value was 78.

What about the “GFP/OD630, p75NTR WT, Mean” value ([1]; Div17E5 7.5 uM) of the same compound?
Its value is 69%.

What about the “GFP/OD630, p75NTR WT, n1-n3” value ([1]; Div17E5 7.5 uM) of the same compound?
Its value is 70% and 62% and 76%.

And the “GFP/OD630, p75, single replicates” value ([1]; Div17E5 10 μM)?
The value was 49 and 55 and 68.

What about the “GFP/OD630, p75, mean” value ([1]; Div17E5 10 μM) of the same compound?
The value was 57.

And the “GFP/OD630, p75NTR WT, Mean” value ([1]; Div17E5 15 uM)?
Its value is 61%.

What about the “GFP/OD630, p75NTR WT, n1-n3” value ([1]; Div17E5 15 uM) of the same compound?
Its value is 62% and 58% and 63%.

What about the “GFP/OD630, p75, single replicates” value ([1]; Div17E5 20 μM) of the same compound?
Its value is 39 and 55 and 49.

And the “GFP/OD630, p75NTR WT, Mean” value ([1]; Div17E5 20 uM)?
Its value is 45%.

And the “GFP/OD630, p75, mean” value ([1]; Div17E5 20 μM)?
The value was 48.

What about the “GFP/OD630, p75NTR WT, n1-n3” value ([1]; Div17E5 20 uM) of the same compound?
The value was 50% and 41% and 44%.

What about the “GFP/OD630, p75, single replicates” value ([1]; Div17E5 50 μM) of the same compound?
Its value is 33 and 42 and 39.

And the “GFP/OD630, p75NTR WT, Mean” value ([1]; Div17E5 50 uM)?
The value was 45%.

What about the “GFP/OD630, p75, mean” value ([1]; Div17E5 50 μM) of the same compound?
Its value is 38.

What about the “GFP/OD630, p75NTR WT, n1-n3” value ([1]; Div17E5 50 uM) of the same compound?
Its value is 43% and 46% and 47%.

What about the “GFP/OD630, Mean” value ([1]; compound 2 μM) of the same compound?
The value was 0.93.

And the “GFP/OD630, individual replicates” value ([1]; compound 2 μM)?
Its value is 0.98 and 0.93 and 0.88.

And the “GFP/OD630, Mean” value ([1]; compound 4 μM)?
The value was 0.86.

What about the “GFP/OD630, individual replicates” value ([1]; compound 4 μM) of the same compound?
The value was 0.83 and 0.92 and 0.82.

And the “GFP/OD630, Mean” value ([1]; compound 6 μM)?
Its value is 0.82.

And the “GFP/OD630, individual replicates” value ([1]; compound 6 μM)?
The value was 0.86 and 0.78 and 0.83.

What about the “GFP/OD630, Mean” value ([1]; compound 8 μM) of the same compound?
The value was 0.44.

What about the “GFP/OD630, individual replicates” value ([1]; compound 8 μM) of the same compound?
The value was 0.43 and 0.51 and 0.37.

And the “GFP/OD630, Mean” value ([1]; compound 10 μM)?
Its value is 0.43.

What about the “GFP/OD630, individual replicates” value ([1]; compound 10 μM) of the same compound?
Its value is 0.41 and 0.48 and 0.40.

What about the IC50 ([1]; dose-response) of the same compound?
The IC50 was 12 µM.

What about the “selectivity for the p75NTR TMD as compared to TMDs of two unrelated proteins” value ([1]; vs α2β3 integrin and M2 TMDs) of the same compound?
The value was “good selectivity”.

What about the “effect of Pro253 mutation on compound activity in AraTM assay” value [2] of the same compound?
The value was “had no effect”.

What about the “GFP/OD630, p75NTR P253G, n1-n3” value ([2]; Div17E5 7.5 uM) of the same compound?
The value was 62% and 68% and 61%.

What about the “GFP/OD630, p75NTR P253G, Mean” value ([2]; Div17E5 7.5 uM) of the same compound?
The value was 64%.

And the “GFP/OD630, p75NTR P253G, n1-n3” value ([2]; Div17E5 15 uM)?
Its value is 61% and 77% and 66%.

And the “GFP/OD630, p75NTR P253G, Mean” value ([2]; Div17E5 15 uM)?
Its value is 68%.

And the “GFP/OD630, p75NTR P253G, n1-n3” value ([2]; Div17E5 20 uM)?
Its value is 59% and 49% and 56%.

What about the “GFP/OD630, p75NTR P253G, Mean” value ([2]; Div17E5 20 uM) of the same compound?
The value was 55%.

And the “GFP/OD630, p75NTR P253G, n1-n3” value ([2]; Div17E5 50 uM)?
The value was 57% and 56% and 59%.

And the “GFP/OD630, p75NTR P253G, Mean” value ([2]; Div17E5 50 uM)?
Its value is 57%.

What about the “effect of Val254 mutation on compound activity in AraTM assay” value [3] of the same compound?
The value was “abolished”.

And the “GFP/OD630, p75NTR V254A, n1-n3” value ([3]; Div17E5 7.5 uM)?
Its value is 87% and 97% and 91%.

And the “GFP/OD630, p75NTR V254A, Mean” value ([3]; Div17E5 7.5 uM)?
Its value is 92%.

And the “GFP/OD630, p75NTR V254A, n1-n3” value ([3]; Div17E5 15 uM)?
Its value is 86% and 95% and 96%.

And the “GFP/OD630, p75NTR V254A, Mean” value ([3]; Div17E5 15 uM)?
Its value is 92%.

What about the “GFP/OD630, p75NTR V254A, n1-n3” value ([3]; Div17E5 20 uM) of the same compound?
Its value is 89% and 96% and 99%.

What about the “GFP/OD630, p75NTR V254A, Mean” value ([3]; Div17E5 20 uM) of the same compound?
The value was 95%.

And the “GFP/OD630, p75NTR V254A, n1-n3” value ([3]; Div17E5 50 uM)?
The value was 95% and 85% and 98%.

What about the “GFP/OD630, p75NTR V254A, Mean” value ([3]; Div17E5 50 uM) of the same compound?
The value was 93%.

And the wound closure [4]?
The wound closure was “did not significantly affect wound closure”.

What about the “Wound area, n1-n3” value [4, 5] of the same compound?
The value was 0.989 Fold and 0.886 Fold and 1.125 Fold.

And the “Wound area, Mean” value [4, 5]?
Its value is 1.000 Fold.

And the “Wound area, n1-n3” value [4, 6]?
Its value is 0.947 Fold and 0.979 Fold and 1.007 Fold.

And the “Wound area, Mean” value [4, 6]?
The value was 0.978 Fold.

And the “Wound area, n1-n3” value [4, 7]?
The value was 0.959 Fold and 0.975 Fold and 0.953 Fold.

And the “Wound area, Mean” value [4, 7]?
The value was 0.962 Fold.

And the “Wound area, n1-n3” value [4, 8]?
Its value is 0.955 Fold and 0.965 Fold and 0.942 Fold.

What about the “Wound area, Mean” value [4, 8] of the same compound?
Its value is 0.954 Fold.

What about the “Wound area, n1-n3” value [4, 9] of the same compound?
Its value is 0.935 Fold and 0.950 Fold and 0.940 Fold.

What about the “Wound area, Mean” value [4, 9] of the same compound?
Its value is 0.941 Fold.

What about the “Wound area, n1-n3” value [4, 10] of the same compound?
The value was 0.901 Fold and 0.902 Fold and 0.903 Fold.

What about the “Wound area, Mean” value [4, 10] of the same compound?
The value was 0.902 Fold.

And the “Wound area, n1-n3” value [4, 11]?
Its value is 0.849 Fold and 0.823 Fold.

And the “Wound area, Mean” value [4, 11]?
The value was 0.840 Fold.

And the “Wound area, n1-n3” value [4, 12]?
Its value is 0.828 Fold and 0.801 Fold and 0.783 Fold.

What about the “Wound area, Mean” value [4, 12] of the same compound?
The value was 0.804 Fold.

And the “Wound area, n1-n3” value [4, 13]?
The value was 0.790 Fold and 0.822 Fold and 0.793 Fold.

What about the “Wound area, Mean” value [4, 13] of the same compound?
The value was 0.801 Fold.

What about the “Wound area, n1-n3” value ([4]; 10μM Div17E5, 0 hours) of the same compound?
The value was 1.039 Fold and 1.010 Fold and 0.951 Fold.

And the “Wound area, Mean” value ([4]; 10μM Div17E5, 0 hours)?
The value was 1.000 Fold.

And the “Wound area, n1-n3” value ([4]; 10μM Div17E5, 3 hours)?
Its value is 0.987 Fold and 0.961 Fold and 0.970 Fold.

And the “Wound area, Mean” value ([4]; 10μM Div17E5, 3 hours)?
The value was 0.973 Fold.

And the “Wound area, n1-n3” value ([4]; 10μM Div17E5, 6 hours)?
The value was 0.982 Fold and 0.933 Fold and 0.919 Fold.

And the “Wound area, Mean” value ([4]; 10μM Div17E5, 6 hours)?
The value was 0.945 Fold.

What about the “Wound area, n1-n3” value ([4]; 10μM Div17E5, 9 hours) of the same compound?
Its value is 0.959 Fold and 0.914 Fold and 0.881 Fold.

What about the “Wound area, Mean” value ([4]; 10μM Div17E5, 9 hours) of the same compound?
The value was 0.918 Fold.

What about the “Wound area, n1-n3” value ([4]; 10μM Div17E5, 12 hours) of the same compound?
The value was 0.961 Fold and 0.889 Fold and 0.887 Fold.

And the “Wound area, Mean” value ([4]; 10μM Div17E5, 12 hours)?
The value was 0.912 Fold.

From paper PMC12514245, “Impaired migration and lung invasion of human melanoma by a novel small molecule targeting the transmembrane domain of death receptor p75^NTR” (EMBO Molecular Medicine, 2025)
